Assay results reported in patent US4046762A, “Esters and amides of 3-aryl-1,4 benzodioxan-2-carboxylic acids” (Instituto Luso Farmaco D'Italia S.r.l., priority 1972, dated 1977).
Counter-ions that a name gives are not always drawn.

Tests used:
[1] = Indicative acute toxicity, mouse (intraperitoneally); conditions: in vivo, ip, read-out: Indicative acute toxicity, DL50
[2] = system: Stretching from acetic acid; experiment: Stretching from acetic acid; assay type: in vivo; conditions: for ED50: read-out: Stretching from acetic acid, DE50
Oedema from charragenin = experiment: Oedema from charragenin, rat; assay type: in vivo; conditions: i.p.
Antituxive activity = experiment: Antituxive activity; assay type: in vivo; conditions: for ED50: read-out: Antituxive activity, DE50
ileum of Guinea pig = experiment: Antihystaminic activity, ileum of Guinea pig; conditions: Cavia porcellus, 10 γ/ml
tail of mouse = experiment: Local anaesthetic activity, tail of mouse; assay type: in vivo
sciatic nerve of rat = experiment: Local anaesthetic activity, sciatic nerve of rat
central nervous system [3] = experiment: Activity on central nervous system, mouse: depression of spontaneous motility; assay type: in vivo; conditions: orally
Antipyresis = experiment: Antipyresis, rat; assay type: in vivo; conditions: 65 mg/kg
central nervous system [4] = experiment: Activity on central nervous system, mouse: Catalepsy (haloperidol); assay type: in vivo; conditions: orally, 15 mg/kg
central nervous system [5] = experiment: Activity on central nervous system, mouse: Potentiation of barbituric hypnosis; assay type: in vivo; conditions: orally, 15 mg/kg
central nervous system [6] = experiment: Activity on central nervous system, mouse: Stereotipy (apomorphine); assay type: in vivo; conditions: orally, 40 mg/kg
central nervous system [7] = experiment: Activity on central nervous system, mouse: Stereotipy (amphetamine); assay type: in vivo; conditions: orally, 180 mg/kg
Arrhytmia CaCl2 = Arrhytmia CaCl2 - rat; assay type: in vivo; conditions: intravenously, 7.5 mg/kg

Q: For `O=C(OCCOCCN1CCOCC1)C1Oc2ccccc2OC1c1ccccc1` (stereo not drawn) [LR 348, morpholinoethoxyethyl (3-phenyl-1,4-benzodioxan-2-yl)-carboxylate,hydrochloride], which LD50 [1] is on record?
A: Its LD50 is 250 mg/kg.

Q: What about the ED50 [2] of the same compound?
A: The ED50 was 15.6 mg/kg.

Q: What about the “Oedema from charragenin, %” value (Oedema from charragenin; 50 mg/kg) of the same compound?
A: Its value is 40%.

Q: And the ED50 (Antituxive activity)?
A: Its ED50 is 50 mg/kg.

Q: What about the inhibition at 10 µg/mL (ileum of Guinea pig) of the same compound?
A: The inhibition at 10 µg/mL was 60%.

Q: And the “Local anaesthetic activity, tail of mouse, DE50” value (tail of mouse)?
A: The value was 2.70 mg/mL.

Q: And the “Local anaesthetic activity, sciatic nerve of rat, DE50” value (sciatic nerve of rat)?
A: Its value is 12.2 mg/mL.

Q: For `CCN(CC)CCOCCOC(=O)C1Oc2ccccc2OC1c1ccccc1` (stereo not drawn) [LR 349, n,n-diethylaminoethoxyethyl (3-phenyl-1,4-benzodioxan-2-yl)-carboxylate, citrate], which LD50 [1] is on record?
A: The LD50 was 200 mg/kg.

Q: And the “Stretching from acetic acid, %” value ([2]; 10 mg/kg)?
A: Its value is 20%.

Q: And the “Oedema from charragenin, %” value (Oedema from charragenin; 50 mg/kg)?
A: The value was 50%.

Q: What about the ED50 (Antituxive activity) of the same compound?
A: Its ED50 is 39.5 mg/kg.

Q: What about the “Local anaesthetic activity, tail of mouse, DE50” value (tail of mouse) of the same compound?
A: Its value is 2.85 mg/mL.

Q: What about the “Local anaesthetic activity, sciatic nerve of rat, DE50” value (sciatic nerve of rat) of the same compound?
A: The value was 11.2 mg/mL.

Q: What does the source list for `CC(C)NC(=O)C1Oc2ccccc2OC1c1ccccc1` (stereo not drawn) [LR 367, n-(3-phenyl-1,4-benzodioxan-2-ylcarbonyl)-isopropylamine]?
A: LD50 [1]: > 3000 mg/kg; ED50 [2]: 138 mg/kg; Oedema from charragenin, % (Oedema from charragenin; 200 mg/kg): 30%; ED50 (Antituxive activity): 86 mg/kg; depression of spontaneous motility, % (central nervous system [3]; 150 mg/kg): 32%

Q: For `O=C(C1Oc2ccccc2OC1c1ccccc1)N1CCN(c2ccccc2)CC1` (stereo not drawn) [LR 394, n'-phenyl-N-(3-phenyl-1,4-benzodioxan-2-ylcarbonyl)-piperazine.H2 0], which LD50 [1] is on record?
A: The LD50 was 330 mg/kg.

Q: What about the ED50 [2] of the same compound?
A: The ED50 was 22 mg/kg.

Q: And the “Oedema from charragenin, %” value (Oedema from charragenin; 42 mg/kg)?
A: Its value is 50%.

Q: What about the “Antipyresis, %” value (Antipyresis) of the same compound?
A: The value was 100%.

Q: What about the “Antituxive activity, %” value (Antituxive activity; 10 mg/kg) of the same compound?
A: Its value is 64%.

Q: And the ED50 (central nervous system [3]; po, read-out: depression of spontaneous motility, DE50)?
A: Its ED50 is 33.5 mg/kg.

Q: With `CCN(CC)CCNC(=O)C1Oc2ccccc2OC1c1ccccc1` (stereo not drawn) [LR 510, n-(n',n'-diethylaminoethyl)-(3-phenyl-1,4-benzodioxan-2-ylcarbonyl)-amine] as the compound, how does the LD50 [1] read?
A: The LD50 was 75 mg/kg.

Q: And the “Catalepsy (haloperidol), %” value (central nervous system [4])?
A: The value was 33%.

Q: What about the “Potentiation of barbituric hypnosis, %” value (central nervous system [5]) of the same compound?
A: The value was 20%.

Q: For `O=C(NO)C1Oc2ccccc2OC1c1ccccc1` (stereo not drawn) [LR 518, (3-phenyl-1,4-benzodioxan-2-yl)-carbohydroxamic acid], which LD50 [1] is on record?
A: Its LD50 is 175 mg/kg.

Q: What about the “Oedema from charragenin, %” value (Oedema from charragenin; 40 mg/kg) of the same compound?
A: The value was 12%.

Q: What about the “Stereotipy (apomorphine), %” value (central nervous system [6]) of the same compound?
A: Its value is 30%.

Q: What does the source list for `O=C(C1Oc2ccccc2OC1c1ccccc1)N1CCOCC1` (stereo not drawn) [LR 519, n-(3-phenyl-1,4-benzodioxan-2-ylcarbonyl)-morpholine]?
A: LD50 [1]: 750 mg/kg; Oedema from charragenin, % (Oedema from charragenin; 180 mg/kg): 15%; Stereotipy (amphetamine), % (central nervous system [7]): 20%

Q: For `CCN(CC)CCOC(=O)C1Oc2ccccc2OC1c1ccccc1` (stereo not drawn) [LR 520, n,n-diethylaminoethyl (3-phenyl-1,4-benzodioxan-2-yl)-carboxylate,citrate], which LD50 [1] is on record?
A: The LD50 was 300 mg/kg.

Q: What about the “Oedema from charragenin, %” value (Oedema from charragenin; 60 mg/kg) of the same compound?
A: The value was 9%.

Q: And the “Arrhytmia CaCl2” value (Arrhytmia CaCl2)?
A: The value was 40.
